Data taken from patent US9587035B2, “Assay for benzylpiperazine and metabolites” (Randox Laboratories Limited, priority 2012, dated 2017).
≈ marks a conversion by molar mass, not a printed value. Counter-ions that a name gives are not always drawn.

Legend:
[1] = tested on: polyclonal antibodies (antiserum raised to Immunogen II), detecting agent Hapten 1-HRP; experiment: Biochip competitive immunoassay (antibody characterisation, cross-reactivity); assay type: binding, sheep; settings: for % Cross-reactivity: CR based on 100% for 1-benzylpiperazine, detecting agent derived from Hapten-1, % CR = IC50 1-benzylpiperazine/IC50 CR x 100; for IC50: detecting agent derived from Hapten-1, competitive assay format
Protocol: Pre-immunisation blood samples were collected from 16-month-old female Suffolk sheep. The immunisation mixture was prepared by adding 2 mg of immunogen prepared in PBS at a ratio of 50% lmmunogen/PBS with 50% Freund's Complete adjuvant (Sigma, Product Number—F5881) and emulsifying the mixture to prepare the final product for immunisation. On Day 0, each sheep was immunized intramuscularly with 1 ml of the mixture described above, with 2-[4-(piperazin-1-yl-methyl)phenoxy]acetic acid conjugated to a carrier protein bovine thyroglobulin (BTG) (as in example 6 above). Subsequent boosts (a total of 20 boosts) were administered intramuscularly to each sheep every 30 days. Freund's complete adjuvant (Sigma, Product Number—F5881) was used for primary immunizations and Freund's incomplete adjuvant (Sigma product Number—F5506) was used for all subsequent injections. Routine bleeds were taken between boosts to monitor the antibody titre and sensitivity, using hapten 1 conjugated to Horseradish peroxidase in a competitive ELISA, testing cross reactivity to 1-Benzylpiperazine and 4-OH benzylpiperazine.
Once the antibody titres were assessed as meeting the required performance criteria i.e. there was no significant increase in antibody titre and a plateau had been reached in the % displacement profile, antibodies were then evaluated by competitive immunoassay. They were first immobilized on a biochip platform (9 mm×9 mm) (Randox Laboratories Ltd.), which was the vessel for the immunoreactions. The semi-automated bench top analyser Evidence Investigator was used (EV3602, Randox Laboratories Ltd., Crumlin, UK, patents-EP98307706, EP98307732, EP0902394, EP1227311, EP1434995 and EP1354623). The assay principle was based on competition for binding sites of the polyclonal antibodies between free antigen (1-Benzylpiperazine and other cross-reactants) and labelled conjugate (Hapten 1-HRP, prepared as in example 6). Assay dilutent (155 μl), calibrator/1-benzylpiperazine or potential cross-reactant (25 μl) followed by Hapten 1-HRP conjugate (120 μl) were added to the appropriate biochip. The biochips were then incubated for 30 minutes at 30° C. on a thermo-shaker set at 370 rpm. The biochips were then subjected to 2 quick wash cycles using the wash buffer provided, followed by 4×2 minute wash cycles. 250 μl of signal (1:1 luminol+peroxide, v/v) was then added to each biochip, and after 2 minutes the biochip carrier was imaged in the Evidence Investigator analyser. The system incorporates dedicated software to automatically process, report and archive the data generated (details can be found in FitzGerald, S. P. et al, Clin. Chem. 51(7); 1165-1176; 2005).
Calibration curves were generated using the Biochip based immunoassay as described above. The IC50 was calculated from the graphs by taking 50% of the signal from the zero calibrator and reading the corresponding value on the x-axis, equivalent to the concentration of unlabelled ligand which reduces specific binding of labelled ligand by 50%. Specificity was also tested against a range of related analytes (Table 1). Cross-reactivity was calculated according to the following formula: % CR=IC50, 1-benzylpiperazine/IC50, CR×100 where % CR is the percentage cross-reactivity, IC50, 1-benzylpiperazine is the concentration of 1-benzylpiperazine that causes 50% displacement of signal and IC50, CR is the concentration of 1-benzylpiperazine/metabolites/structurally-related molecules that causes 50% displacement of signal.

MDMA immunoassay = settings: commercial MDMA immunoassay; cited from earlier work
[2] = Wistar rats, cited from earlier work; for % of the dose excreted as this molecule: BZP dosed; for detectability in urine post-dosing / time of peak urinary level post-dosing: urine
[3] = cited from earlier work

Row | SMILES | % Cross-reactivity [1] [%] | IC50 [1] [µg/mL] | also measured
1 | COc1ccccc1N1CCNCC1 [1-(2-Methoxyphenyl)piperazine diHCl, 1-(2-Methoxyphenyl)piperazine] | 3.2 | 0.0438 | –
2 | Oc1cccc(N2CCNCC2)c1 [1-(3-Hydroxyphenyl)piperazine] | 1.0 | 0.14 (≈ 0.785 µM) | –
3 | Cc1cccc(N2CCNCC2)c1 [1-(3-Methylphenyl)piperazine] | 3.9 | 0.0359 (≈ 0.204 µM) | –
4 | FC(F)(F)c1cccc(N2CCNCC2)c1 [1-(3-Trifluoromethylphenyl)piperazine] | 1.9 | 0.0737 (≈ 0.32 µM) | –
5 | Cc1ccc(N2CCNCC2)cc1 [1-(4-Methylphenyl)piperazine] | 1.3 | 0.1077 (≈ 0.611 µM) | –
6 | c1ccc(CN2CCNCC2)cc1 [1-Benzylpiperazine, 1-benzylpiperazine] | 100.0 | 0.0014 (≈ 0.00794 µM) | concentration needed for a positive result (MDMA immunoassay): 3,000,000 ng/mL; % of the dose excreted as this molecule [2]: 6.7%; detectability in urine post-dosing [2]: undetectable at 48hrs; time of peak urinary level post-dosing [2]: around 4 hrs; elimination half life ([3]; in vivo): 5 to 6 h; time at which elimination is complete ([3]; in vivo): around 44 hrs; time to detection in plasma ([3]; oral dose of BZP hydrochloride): ≤ 30 min
7 | c1ccc(N2CCNCC2)cc1 [1-Phenylpiperazine] | 3.4 | 0.0412 (≈ 0.254 µM) | –
8 | c1cc2c(cc1CN1CCNCC1)OCO2 [1-Piperonylpiperazine] | 101.5 | 0.0014 (≈ 0.00636 µM) | –
9 | Oc1cccc(CN2CCNCC2)c1 [3-(Piperazin-1ylmethyl)phenol diHCl, 3-(Piperazin-1ylmethyl)phenol] | 123.7 | 0.0011 | % of the dose excreted as this molecule [2]: 2%; detectability in urine post-dosing [2]: detectable up to 48hrs; time of peak urinary level post-dosing [2]: around 8 hrs
10 | Oc1ccc(CN2CCNCC2)cc1 [4-OH Benzylpiperazine, 4-OH benzylpiperazine] | 172.1 | 0.0008 (≈ 0.00416 µM) | % of the dose excreted as this molecule [2]: 25%; detectability in urine post-dosing [2]: detectable up to 48hrs; time of peak urinary level post-dosing [2]: around 8 hrs
11 | Cc1cccc(CN2CCNCC2)c1 [N-(3-Methylbenzyl)piperazine diHCl, N-(3-Methylbenzyl)piperazine] | 52.9 | 0.0026 | –
12 | Clc1cccc(N2CCNCC2)c1 [mCPP HCl, 1-(3-chlorophenyl)piperazine] | 0.6 | 0.2333 | –
